Publication PMC8838590, “Recognition of Dimethylarginine Analogues by Tandem Tudor Domain Protein Spindlin1” (Molecules, 2022)
Starred links: 1 amine or outer side, 2 acyl side, 3 side chain; linkers in the order of their positions; H or OH if unused. Non-standard residues stand in square brackets, D forms with d. Residues, ends and D or L forms follow the SMILES beside them. Groups on a side chain read outwards from the residue. X3 = N=C(NCCC[C@H](N[*:1])C(=O)[*:2])N1CCCCC1; X2 = CCN(CC)C(=N)NCCC[C@H](N[*:1])C(=O)[*:2]; X4 = N=C(NCCC[C@H](N[*:1])C(=O)[*:2])N1CCCC1; X5 = CN(C)C(=N)NCCCC[C@H](N[*:1])C(=O)[*:2]; X6 = CCN(C)C(=N)NCCC[C@H](N[*:1])C(=O)[*:2]; X1 = CN(C)C(=N)NCC[C@H](N[*:1])C(=O)[*:2]; Lys(Me3) = C[N+](C)(C)CCCC[C@H](N)C(=O)O; Orn = NCCC[C@H](N)C(=O)O; CO = O=C([*:1])[*:2]

Assays:
Spindlin1 (SPIN1_49-262) = biological target: T1, Spindlin1 (SPIN1_49-262) (Homo sapiens, UniProt Q9Y657); test: Isothermal titration calorimetry of 15-mer H3K4me3X8 peptides binding to Spindlin1; details: ITC; for ΔH° / −TΔS°: 25.0 °C, 20 mM Tris, 100 mM NaCl pH 8.0, mean ± SD of 3 repeated ITC experiments
T1 construct: SPIN1_49-262 was expressed and purified as described previously; His tag; made in house; host or cells: E. coli BL21
T1 sequence (Q9Y657 49-262): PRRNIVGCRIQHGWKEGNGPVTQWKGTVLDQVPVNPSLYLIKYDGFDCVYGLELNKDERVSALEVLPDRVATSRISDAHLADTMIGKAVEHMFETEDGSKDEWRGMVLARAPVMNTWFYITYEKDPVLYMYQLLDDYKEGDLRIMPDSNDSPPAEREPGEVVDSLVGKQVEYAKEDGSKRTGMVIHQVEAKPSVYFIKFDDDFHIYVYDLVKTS
Experimental: Spindlin1 was dialysed against ITC buffer containing 100 mM NaCl and 20 mM Tris HCl buffer (pH 8.0).
SPIN1_49-262 was expressed and purified as described previously. Briefly, His-tagged SPIN1 was expressed in E.coli strain BL21 at 37 °C until OD600 = 2.0. Protein expression was induced by the addition of 0.1 mM IPTG, followed by incubation at 18 °C overnight. Bacteria were harvested by centrifugation and subsequent resuspension of the pellet in buffer containing 50 mM Hepes pH 7.5, 500 mM NaCl, 10 mM Imidazole, 5% glycerol, 0.5 mM TCEP, and a protease inhibitor cocktail (Sigma, St. Louis, MO, USA). After lysis and centrifugation, His-tagged SPIN1 was affinity purified by Ni^2+-NTA-agarose chromatography (Cytiva, Marlborough, MA, USA) applying a gradient of imidazole. Subsequent size exclusion chromatography (Superdex 75, Cytiva) was performed with buffer containing 10 mM Hepes pH 7.5, 500 mM NaCl, 5% glycerol, and 0.5 mM TCEP.
Isothermal titration calorimetry was performed at 25 °C on a fully automated Microcal Auto-iTC200 (GE Healthcare Life Sciences, Marlborough, MA, USA). SPIN1_49-262 was dialysed against ITC buffer containing 20 mM Tris, 100 mM NaCl pH 8.0. Titrations were carried out with an initial injection of 0.5 μL, followed by 19 injections of 2 μL at a total concentration of 20 μM SPIN1_49-262 and 150-370 μM peptide. Fitting and analyses of the acquired titration curves were performed with Origin 6.0 (Microcal Inc., Northampton, MA, USA) using the One Set of Binding Sites model.

[1] = biological target: H3K4me3K9me3 peptide (Homo sapiens) (UniProt P68431); details: cited from earlier work
[2] = biological target: H3K4me3R8me2s peptide (Homo sapiens) (UniProt P68431); details: cited from earlier work
[3] = biological target: H3K4me3R8me2a 10-mer peptide (Homo sapiens) (UniProt P68431); details: cited from earlier work
[4] = biological target: H3K4me3R8me1 peptide (Homo sapiens) (UniProt P68431); details: cited from earlier work
[5] = biological target: H4K20me3 peptide (Homo sapiens) (UniProt P62805); details: cited from earlier work

Chain of Spindlin1 (Q9Y657 whole entry): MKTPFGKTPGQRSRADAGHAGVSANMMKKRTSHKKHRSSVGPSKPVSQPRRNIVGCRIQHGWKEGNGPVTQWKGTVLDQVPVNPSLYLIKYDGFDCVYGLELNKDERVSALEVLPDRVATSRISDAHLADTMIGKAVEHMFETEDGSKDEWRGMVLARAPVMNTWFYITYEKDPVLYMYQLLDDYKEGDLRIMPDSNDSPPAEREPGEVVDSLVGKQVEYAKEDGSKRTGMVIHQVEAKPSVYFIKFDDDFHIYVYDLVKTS

ΔH° (Spindlin1 (SPIN1_49-262); SD) [kcal/mol] | −TΔS° (Spindlin1 (SPIN1_49-262); SD) [kcal/mol] | Compound | also measured
-15.6 ± 0.3 | 5.9 ± 0.2 | C[C@H](N)C(=O)N[C@@H](CCCNC(=N)N)C(=O)N[C@H](C(=O)N[C@@H](CCCC[N+](C)(C)C)C(=O)N[C@@H](CCC(N)=O)C(=O)N[C@H](C(=O)N[C@@H](C)C(=O)N[C@@H](CCCNC(=O)N(C)C)C(=O)N[C@@H](CCCCN)C(=O)N[C@@H](CO)C(=O)N[C@H](C(=O)NCC(=O)NCC(=O)N[C@@H](CCCCN)C(=O)N[C@@H](C)C(N)=O)[C@@H](C)O)[C@@H](C)O)[C@@H](C)O [H3K4me3Cit8me2] (H-ART[Lys(Me3)]QTA[Orn]([CO-NMe2])KSTGGKA-NH2) | ΔΔH° (Spindlin1 (SPIN1_49-262); relative to H3K4me3R8me2a): 1.7 kcal/mol; −TΔΔS° (Spindlin1 (SPIN1_49-262); relative to H3K4me3R8me2a): -1.1 kcal/mol
-19.3 ± 0.6 | 9.3 ± 0.6 | CCN(CC)C(=N)NCCC[C@H](NC(=O)[C@H](C)NC(=O)[C@@H](NC(=O)[C@H](CCC(N)=O)NC(=O)[C@H](CCCC[N+](C)(C)C)NC(=O)[C@@H](NC(=O)[C@H](CCCNC(=N)N)NC(=O)[C@H](C)N)[C@@H](C)O)[C@@H](C)O)C(=O)N[C@@H](CCCCN)C(=O)N[C@@H](CO)C(=O)N[C@H](C(=O)NCC(=O)NCC(=O)N[C@@H](CCCCN)C(=O)N[C@@H](C)C(N)=O)[C@@H](C)O [H3K4me3R8et2a] (H-ART[Lys(Me3)]QTA[X2]KSTGGKA-NH2) | 
-20.8 ± 0.6 | 11.2 ± 0.6 | CCN(C)C(=N)NCCC[C@H](NC(=O)[C@H](C)NC(=O)[C@@H](NC(=O)[C@H](CCC(N)=O)NC(=O)[C@H](CCCC[N+](C)(C)C)NC(=O)[C@@H](NC(=O)[C@H](CCCNC(=N)N)NC(=O)[C@H](C)N)[C@@H](C)O)[C@@H](C)O)C(=O)N[C@@H](CCCCN)C(=O)N[C@@H](CO)C(=O)N[C@H](C(=O)NCC(=O)NCC(=O)N[C@@H](CCCCN)C(=O)N[C@@H](C)C(N)=O)[C@@H](C)O [H3K4me3R8etme] (H-ART[Lys(Me3)]QTA[X6]KSTGGKA-NH2) | 
-17.3 ± 1.9 | 7.0 ± 1.9 | C[C@H](N)C(=O)N[C@@H](CCCNC(=N)N)C(=O)N[C@H](C(=O)N[C@@H](CCCC[N+](C)(C)C)C(=O)N[C@@H](CCC(N)=O)C(=O)N[C@H](C(=O)N[C@@H](C)C(=O)N[C@@H](CCCNC(=N)N(C)C)C(=O)N[C@@H](CCCCN)C(=O)N[C@@H](CO)C(=O)N[C@H](C(=O)NCC(=O)NCC(=O)N[C@@H](CCCCN)C(=O)N[C@@H](C)C(N)=O)[C@@H](C)O)[C@@H](C)O)[C@@H](C)O [H3K4me3R8me2a] | ΔH° (Spindlin1 (SPIN1_49-262)): -17.3 kcal/mol; −TΔS° (Spindlin1 (SPIN1_49-262)): 7.0 kcal/mol
-20.9 ± 0.3 | 11.2 ± 0.1 | C[C@H](N)C(=O)N[C@@H](CCCNC(=N)N)C(=O)N[C@H](C(=O)N[C@@H](CCCC[N+](C)(C)C)C(=O)N[C@@H](CCC(N)=O)C(=O)N[C@H](C(=O)N[C@@H](C)C(=O)N[C@@H](CCCNC(=N)N1CCCCC1)C(=O)N[C@@H](CCCCN)C(=O)N[C@@H](CO)C(=O)N[C@H](C(=O)NCC(=O)NCC(=O)N[C@@H](CCCCN)C(=O)N[C@@H](C)C(N)=O)[C@@H](C)O)[C@@H](C)O)[C@@H](C)O [H3K4me3R8pip] (H-ART[Lys(Me3)]QTA[X3]KSTGGKA-NH2) | 
-22.5 ± 0.4 | 13.0 ± 0.5 | C[C@H](N)C(=O)N[C@@H](CCCNC(=N)N)C(=O)N[C@H](C(=O)N[C@@H](CCCC[N+](C)(C)C)C(=O)N[C@@H](CCC(N)=O)C(=O)N[C@H](C(=O)N[C@@H](C)C(=O)N[C@@H](CCCNC(=N)N1CCCC1)C(=O)N[C@@H](CCCCN)C(=O)N[C@@H](CO)C(=O)N[C@H](C(=O)NCC(=O)NCC(=O)N[C@@H](CCCCN)C(=O)N[C@@H](C)C(N)=O)[C@@H](C)O)[C@@H](C)O)[C@@H](C)O [H3K4me3R8pyr] (H-ART[Lys(Me3)]QTA[X4]KSTGGKA-NH2) | 
-20.9 ± 0.7 | 11.0 ± 0.7 | C[C@H](N)C(=O)N[C@@H](CCCNC(=N)N)C(=O)N[C@H](C(=O)N[C@@H](CCCC[N+](C)(C)C)C(=O)N[C@@H](CCC(N)=O)C(=O)N[C@H](C(=O)N[C@@H](C)C(=O)N[C@@H](CCCCNC(=N)N(C)C)C(=O)N[C@@H](CCCCN)C(=O)N[C@@H](CO)C(=O)N[C@H](C(=O)NCC(=O)NCC(=O)N[C@@H](CCCCN)C(=O)N[C@@H](C)C(N)=O)[C@@H](C)O)[C@@H](C)O)[C@@H](C)O [H3K4me3hR8me2a] (H-ART[Lys(Me3)]QTA[X5]KSTGGKA-NH2) | 
-16.9 ± 1.3 | 6.8 ± 1.2 | C[C@H](N)C(=O)N[C@@H](CCCNC(=N)N)C(=O)N[C@H](C(=O)N[C@@H](CCCC[N+](C)(C)C)C(=O)N[C@@H](CCC(N)=O)C(=O)N[C@H](C(=O)N[C@@H](C)C(=O)N[C@@H](CCNC(=N)N(C)C)C(=O)N[C@@H](CCCCN)C(=O)N[C@@H](CO)C(=O)N[C@H](C(=O)NCC(=O)NCC(=O)N[C@@H](CCCCN)C(=O)N[C@@H](C)C(N)=O)[C@@H](C)O)[C@@H](C)O)[C@@H](C)O [H3K4me3nR8me2a] (H-ART[Lys(Me3)]QTA[X1]KSTGGKA-NH2) | 
 |  | Spindlin1 (from UniProt Q9Y657) | Kd [1]: 16 nM; Kd [2]: 66 nM; Kd [3]: 45 nM; Kd [4]: 139 nM; Kd [5]: 800 nM
